Experimental data from article PMC5729604, “Dual inhibitors of hepatitis C virus and hepatocellular carcinoma: design, synthesis and docking studies” (Future Science OA, 2017).
Values after ≈ are worked out from the molar mass of the structure shown.

Tests used:
[1] = Solubility in DMF or DMSO under experimental conditions; type: physicochemical
In vitro hemolytic assay = type: cell-based; conditions: 2% erythrocyte suspension (washed red blood cells); 2% erythrocyte suspension, 3 μl of 1 mg/ml compound in DMF per 240 μl well, 37°C 30 min, absorbance 405 nm; <5% considered nontoxic
Procedure: (§1) Compounds 5a-x and 6a-h were subjected to the in vitro hemolytic assay to identify those which cause hemolysis to red blood cells (RBCs). Consequently, these compounds would be toxic in vivo so they were excluded from further biological screening.
(§2) Blood samples (5 ml) were freshly collected into heparinized tubes and were centrifuged (1000 r.p.m. for 20 min) at room temperature. The plasma and buffy coat were removed by Pasteur pipette, and the collected erythrocytes were washed three-times using isotonic buffer solution (0.9% sodium chloride [Sigma-Aldrich, MO, USA]) by centrifugation (2500 r.p.m. for 10 min). A two percent erythrocyte suspension was prepared to be used in the assay.
(§3) A 1 mg/ml stock solution of each compound was prepared in DMF (Sigma-Aldrich). Compound wells were prepared by adding 3 μl of the compound solution to 117 μl isotonic buffer solution and 120 μl erythrocyte suspension. Compounds color blank wells were prepared by adding 3 μl compound to 237 μl isotonic buffer solution. Solvent (DMF) wells were prepared by adding 3 μl DMF to 117 μl isotonic buffer solution and 120 μl erythrocyte suspension. Positive control wells (representing 100% hemolysis) were prepared by adding 120 μl erythrocyte suspension to 120 μl distilled water, while negative control wells (representing 0% hemolysis) were prepared by adding 120 μl erythrocyte suspension to 120 μl isotonic buffer solution. Finally, blank wells contained only 240 μl isotonic buffer solution. Each set of samples was pipetted in triplicate. The microtiter plate was then shaken well on bench, incubated at 37°C for 30 min then centrifuged (2000 rpm for 5 min) at room temperature.
(§4) A fraction of the supernatant layer (150 μl) of each well was transferred to another 96-well microtiter plate. Erythrocyte hemolysis was determined by reading the absorbance (A) of liberated hemoglobin at 405 nm in the supernatant fraction compared with the 100% hemolysis of erythrocyte. The average value was calculated from triplicate assay: [drawing 2]

red blood cells (RBCs) = experiment: In vitro hemolytic assay; type: cell-based; conditions: <5% hemolysis nontoxic, 5% or more toxic and hemolytic
Procedure: as §1, §2, §3, §4

[2] = tested on: human HCC cell line HepG2; experiment: cells; type: cell-based; conditions: Homo sapiens, HepG2, 72 h, 72 h, neutral red; Supplementary Table 2; read-out: Anticancer (HepG2) IC50
Procedure: The safe compounds on RBCs (5a-g, 5i-l, 5p-r, 5v-w, 6b-g) were screened for their potential anticancer activity against human HCC cell line HepG2. HepG2 cells were exposed to the test compounds, then viability of cells was measured using neutral red uptake assay as described by Borenfreund and Puerner. This assay depends on the fact that neutral red dye can be incorporated into the lysosomes of living cells providing a quantitative assay to the cytotoxic effects. The results were interpreted to calculate both the concentration causing 50% cancer cell death (IC50) of each compound and the maximum safe concentration that cause 100% viability (LD0; to be used in the in vitro anti-HCV testing) using GraphPad InStat 3.0 software (Figure 5 & Supplementary Table 2).
HepG2 cells were routinely maintained as adherent cell cultures in RPMI-1640 medium (Lonza Group Ltd, Basel, Switzerland) supplemented with 10% fetal bovine serum (FBS; Lonza, IL, USA) at 37°C in a humidified air incubator containing 5% CO2. Cells were subcultured for 2 weeks before assay. Cell viability was assessed using trypan blue exclusion method.
HepG2 cells were washed twice in RPMI-1640 medium supplemented with 200 μM L-glutamine (Lonza) and […] 4-(2-hydroxyethyl)-1-piperazineethanesulfonic acid (HEPES) buffer (Lonza). The cells were suspended at 3 × 10^4 cells/ml in RPMI culture medium (RPMI supplemented medium and 10% FBS). The appropriate number of cells was chosen to be 3 × 10^3 cells/well (100 μl of the prepared suspension), and the cells were left to adhere on the polystyrene 96-well plates in an incubator at 37°C, 5% CO2 and 95% humidity for 24 h. The cells were washed once using RPMI supplemented medium.
A 2 mg/ml stock solution of each compound was prepared in DMF and filtered using a 0.2 μM syringe filter. The desired concentrations (20, 10, 5, 2.5 and 1.25 μg/ml) were prepared using serial dilution in a 96-well plate. Compound wells were prepared by adding 100 μl of the previously prepared concentrations to a 100 μl of HepG2 cells suspension. Parallel concentrations of the solvent were prepared to be used as controls. 5-Fluorouracil was used as a positive control. Control wells were prepared by adding 100 μl culture media to a 100 μl of HepG2 cells suspension. Blank wells contained 200 μl of culture media only (without cells or compound solution). Each set of samples was pipetted in duplicate. The plate was gently shaken, then incubated at 37°C, 5% CO2 for 72 h.
After incubation, the plate was centrifuged (2000 r.p.m. for 10 min). The media were discarded by inversion over paper towels. A working solution (100 μg/ml) of neutral red stain (Bio Basic Inc, Markham, Canada) was prepared, and 100 μl of this solution was added to each well, then the plate was gently shaken. The plate was incubated at 37°C in humidified 5% CO2 for 3 h, and then centrifuged (2000 r.p.m. for 10 min). Excess dyes were discarded, and the cells were fixed with 100 μl fixing solution (0.5% formalin with 1% calcium chloride [Sigma-Aldrich]) for 1 min. Cells were destained in 100 μl destaining solution (50% ethanol with 1% glacial acetic acid [Sigma-Aldrich]) for 5 min by shaking. The stain intensity was assayed using automated microplate reader spectrophotometer adjusted at 490 nm. Surviving cell fraction was calculated according to the following equation: [drawing 3]
The results were interpreted to calculate both the concentration causing 50% cancer cell death (IC50) of each compound and the maximum safe concentration that cause 100% viability (LD0; to be used in the in vitro anti-HCV testing) using GraphPad InStat 3.0 software.

| Compound | solubility in DMF or DMSO [1] | hemolysis at 30 min, 12.5 µg/ml (In vitro hemolytic assay) | melting point | further results |
| --- | --- | --- | --- | --- |
| COc1ccc(-c2nn(-c3ccccc3)cc2C=C2SC(=NN=C(C)c3nc4ccccc4[nH]3)N(c3ccc(OC)cc3)C2=O)cc1 [Compound 5u, 2-[1-(1H-Benzimidazole-2-yl)ethylidenehydrazono]-5-{[3-(4-methoxyphenyl)-1-phenyl-1H-pyrazol-4-yl]methylene}-3-(4-methoxyphenyl)thiazolidin-4-one] | could not be dissolved | – | – | – |
| COc1ccc(N2C(=O)C(=Cc3cn(-c4ccccc4)nc3-c3ccccc3)SC2=NN=C(C)c2nc3ccccc3[nH]2)cc1 [Compound 5s, 2-[1-(1H-Benzimidazole-2-yl)ethylidenehydrazono]-5-[(1,3-Diphenyl-1H-pyrazol-4-yl)methylene]-3-(4-methoxyphenyl)thiazolidin-4-one] | could not be dissolved | – | – | – |
| CC(=NN=C1SC(=C2C(=O)Nc3ccccc32)C(=O)N1c1ccccc1)c1cc2ccccc2o1 [Compound 6a, 2-[1-(Benzofuran-2-yl)ethylidenehydrazono]-5-(2-oxoindolin-3-ylidene)-3-phenylthiazolidin-4-one] | – | 11.2% | – | toxicity to RBCs (hemolysis), in words (red blood cells (RBCs)): cause hemolysis to RBCs |
| COc1ccc(-c2nn(-c3ccccc3)cc2C=C2SC(=NN=C(C)c3nc4ccccc4[nH]3)N(C3CCCCC3)C2=O)cc1 [Compound 5x, 2-[1-(1H-Benzimidazole-2-yl)ethylidenehydrazono]-5-{[3-(4-methoxyphenyl)-1-phenyl-1H-pyrazol-4-yl]methylene}-3-cyclohexylthiazolidin-4-one] | – | 8.74% | 215 to 217 °C | toxicity to RBCs (hemolysis), in words (red blood cells (RBCs)): cause hemolysis to RBCs |
| COc1ccc(N2C(=O)C(=Cc3cn(-c4ccccc4)nc3-c3ccc(Cl)cc3)SC2=NN=C(C)c2cc3ccccc3o2)cc1 [Compound 5h, 2-[1-(Benzofuran-2-yl)ethylidenehydrazono]-5-{[3-(4-chlorophenyl)-1-phenyl-1H-pyrazol-4-yl]methylene}-3-(4-methoxyphenyl)thiazolidin-4-one] | could not be dissolved | – | 280 to 282 °C | – |
| CC(=NN=C1SC(=C2C(=O)Nc3ccccc32)C(=O)N1C1CCCCC1)c1nc2ccccc2[nH]1 [Compound 6h, 2-[1-(1H-Benzimidazole-2-yl)ethylidenehydrazono]-5-(2-oxoindolin-3-ylidene)-3-cyclohexylthiazolidin-4-one] | – | 7.56% | – | toxicity to RBCs (hemolysis), in words (red blood cells (RBCs)): cause hemolysis to RBCs |
| CC(=NN=C1SC(=Cc2cn(-c3ccccc3)nc2-c2ccccc2)C(=O)N1c1ccccc1)c1nc2ccccc2[nH]1 [Compound 5m, 2-[1-(1H-Benzimidazole-2-yl)ethylidenehydrazono]-5-[(1,3-Diphenyl-1H-pyrazol-4-yl)methylene]-3-phenylthiazolidin-4-one] | – | 11.7% | > 300 °C | – |
| COc1ccc(-c2nn(-c3ccccc3)cc2C=C2SC(=NN=C(C)c3nc4ccccc4[nH]3)N(c3ccccc3)C2=O)cc1 [Compound 5o, 2-[1-(1H-Benzimidazole-2-yl)ethylidenehydrazono]-5-{[3-(4-methoxyphenyl)-1-phenyl-1H-pyrazol-4-yl]methylene}-3-phenylthiazolidin-4-one] | – | 15.1% | > 300 °C | – |
| O=c1[nH]cc(F)c(=O)[nH]1 [Compound 5-FU, 5-Fluorouracil, reference compound] | – | – | – | IC50 [2]: 0.9 µg/mL (≈ 6.92 µM) |
| COc1ccc(N2C(=O)C(=Cc3cn(-c4ccccc4)nc3-c3ccc(Cl)cc3)SC2=NN=C(C)c2nc3ccccc3[nH]2)cc1 [Compound 5t, 2-[1-(1H-Benzimidazole-2-yl)ethylidenehydrazono]-5-{[3-(4-chlorophenyl)-1-phenyl-1H-pyrazol-4-yl]methylene}-3-(4-methoxyphenyl)thiazolidin-4-one] | could not be dissolved | – | – | – |
| CC(=NN=C1SC(=Cc2cn(-c3ccccc3)nc2-c2ccc(Cl)cc2)C(=O)N1c1ccccc1)c1nc2ccccc2[nH]1 [Compound 5n, 2-[1-(1H-Benzimidazole-2-yl)ethylidenehydrazono]-5-{[3-(4-chlorophenyl)-1-phenyl-1H-pyrazol-4-yl]methylene}-3-phenylthiazolidin-4-one] | – | 9.52% | > 300 °C | – |
